Paper PMC7156458, “Synthetic biology based construction of biological activity-related library of fungal decalin-containing diterpenoid pyrones” (Nature Communications, 2020)
“And” between values parts separate entries of the source, which are not always exact repeats. Identical values can stand only once. Like-named read-outs stand apart in the source and are kept apart here.

Legend:
MCF-7 cells = assay: cell cytotoxic effects against MCF-7 cells (72 h), A490; assay type: cell-based, human
[1] = cytotoxicity in Drosophila l(2)mbn cells; assay type: cell-based; conditions: Drosophila, l(2)mbn cells (larval blood cell-derived)
Description: (§1) We screened the DDPs on the Drosophila assay system for cytotoxicity, inhibitory activity of innate immune signalling and insecticidal activity. The cytotoxicity of the DDPs was evaluated using two cell lines, embryonic macrophage-derived DL1 cells[58]–[60] and larval blood cell-derived l(2)mbn cells, and their IC50 values are listed in Supplementary Table 23.

l(2)mbn cells = assay: cytotoxicity in Drosophila l(2)mbn cells; assay type: cell-based; conditions: for Luminescence Raw1: replicate 1; for Luminescence Raw2: replicate 2; for IC50: Drosophila melanogaster, cytotoxicity
Description: as §1

MAGI cells = assay: cytotoxicity in the anti-HIV assay (CC50); assay type: cell-based
[2] = replicate 1, relative to DMSO 1%, read-out: % viability, viability 1
[3] = replicate 2, relative to DMSO 1%, read-out: % viability, viability 2

## C=C1CCC2C3(C)CC(C=C(C)C)OC3CCC2(C)C1Cc1c(OC)oc(C)c(C)c1=O (stereo not shown) [Compound 23]
MCF-7 cells
  cytotoxicity against the bulk of MCF-7 cells: dose-dependent cytotoxicity
MCF-7 cells; Homo sapiens, MCF7, 72 h, MCF-7, 72 h, 0.1 µM (DMSO 0.002%), read-out: A490 (control =1) ave
  viability at 0.1 µM: 62.5%
MCF-7 cells; Homo sapiens, MCF7, 72 h, MCF-7, 72 h, 1 µM (DMSO 0.02%), read-out: A490 (control =1) ave
  viability at 1 µM: 21.6%
MCF-7 cells; Homo sapiens, MCF7, 72 h, MCF-7, 72 h, 10 µM (DMSO 0.2%), read-out: A490 (control =1) ave
  viability at 10 µM: 14.8%
MCF-7 cells; MCF-7, 72 h, 0.1 µM (DMSO 0.002%), control 1.064
  A490 ave: 0.664
MCF-7 cells; MCF-7, 72 h, 1 µM (DMSO 0.02%), control 1.104
  A490 ave: 0.239
MCF-7 cells; MCF-7, 72 h, 10 µM (DMSO 0.2%), control 1.049
  A490 ave: 0.155
[1]; [2]
  viability at 0.04 µM: 122%
  viability at 0.2 µM: 126%
  viability at 1 µM: 44.7%
  viability at 4 µM: 8.9%
  viability at 10 µM: 7.01%
  viability at 20 µM: 6.91%
[1]; [3]
  viability at 0.04 µM: 135%
  viability at 0.2 µM: 141%
  viability at 1 µM: 72.6%
  viability at 4 µM: 9.14%
  viability at 10 µM: 6.89%
  viability at 20 µM: 6.4%
l(2)mbn cells; 0.04 µM
  Luminescence Raw1: 3121216
  Luminescence Raw2: 3467512
l(2)mbn cells; 0.2 µM
  Luminescence Raw1: 3228350
  Luminescence Raw2: 3607479
l(2)mbn cells; 1 µM
  Luminescence Raw1: 1147296
  Luminescence Raw2: 1863873
l(2)mbn cells; 4 µM
  Luminescence Raw1: 228513
  Luminescence Raw2: 234642
l(2)mbn cells; 10 µM
  Luminescence Raw1: 179837
  Luminescence Raw2: 176952
l(2)mbn cells; 20 µM
  Luminescence Raw1: 177313
  Luminescence Raw2: 164332
l(2)mbn cells; average of two replicates, read-out: IC50 Average
  IC50: 1580 nM
l(2)mbn cells; average±SEM, read-out: IC50
  IC50: 1580 ± 350 nM
l(2)mbn cells; replicate 1, read-out: IC50 (1)
  IC50: 1230 nM
l(2)mbn cells; replicate 2, read-out: IC50 (2)
  IC50: 1920 nM
MAGI cells; average of numeric determinations
  Cytotoxicity Avg.: 5.617 µM
MAGI cells; single determinations
  Cytotoxicity: 5.032 µM and 7.537 µM and 4.281 µM
